The results in this text go back to patent US12605350B2, “Composition for preventing, ameliorating, or treating disease caused by nitration of tyrosine in proteins comprising tyrosine as effective component” (INDUSTRY-ACADEMIC COOPERATION FOUNDATION GYEONGSANG …, priority 2020, dated 2026).

Assay [1] relates to animal model of acute hepatic encephalopathy caused by AOM. Put plainly: ammonia in blood, hepatic encephalopathy (hyperammonemia) caused by azoxymethane. It is filed as in vivo, mouse. The note with it: L-tyrosine 100 mg/kg oral once a day for 4 days, AOM 100 mg/kg i.p. On the procedure: C57BL/6 male mouse (13-week old, KOATECH, South Korea) was allowed to have free access to diets and water in sterile breeding room with constant temperature and humidity. The animals were divided into 3 test groups, i.e., (1) Control group (Control), (2) Carboxymethyl cellulose+azoxymethane treatment group (CMC+AOM), and (3) L-Tyrosine+AOM treatment group (L-Tyr+AOM). L-Tyrosine (100 mg/kg) was suspended in 0.5% CMC (carboxymethyl cellulose). The animal was orally administered, once a day for 4 days, with L-tyrosine or the prepared solvent CMC. Two hours after the oral administration on Day 4, intraperitoneal injection of AOM (100 mg/kg, […]) was carried out. To prevent dehydration, the animal was intraperitoneally injected with […] of physiological saline, 12 hours after the administration of AOM. Four hours after the injection, the test animal was sacrificed, blood was collected from the heart, and the liver tissues were harvested. Amount of ammonia in blood was measured by using PocketChem BA PA-4140 (Arkray, Japan), which is an analytical device based on single wavelength reflectometry. Specifically, blood was applied in an amount of 20 μl on a test strip followed by reaction for 3 minutes. The strip was then inserted to the measurement device to obtain the absorbance at a wavelength of 635 nm (LED), which was then expressed in unit of μg/dl.

The subject of assay [2] is high-fat diet mouse model of type 2 diabetes. As to the kind of experiment: insulin resistance test. It is filed as in vivo. The following applies: HFD+L-Tyr vs HFD; 6 hours fasting, insulin 0.75 U/kg i.p., 15-90 minutes. On the procedure: Twenty-seven C57BL/6 male mice (3-week old) were acclimated to the breeding condition for 1 week. […] Blood glucose was measured every week.
Insulin was diluted with physiological saline to prepare 0.15 U/ml solution. Blood glucose of a mouse, which has been subjected to fasting for 6 hours, was measured, and the animal was intraperitoneally injected with insulin (0.75 U/bodyweight (kg)). After the intraperitoneal injection of insulin, blood glucose was measured at time points of 15, 30, 60, and 90 minutes. Insulin injection amount(μl)=Bodyweight(g)×5 Formula (2)

Assay [3] has as its system animal model of acute hepatic encephalopathy caused by AOM. Put plainly: ALT in plasma, hepatic encephalopathy caused by azoxymethane. The following applies: L-tyrosine 100 mg/kg oral once a day for 4 days, AOM 100 mg/kg i.p. It counts as in vivo, mouse. As for the experimental part: C57BL/6 male mouse (13-week old, KOATECH, South Korea) was allowed to have free access to diets and water in sterile breeding room with constant temperature and humidity. The animals were divided into 3 test groups, i.e., (1) Control group (Control), (2) Carboxymethyl cellulose+azoxymethane treatment group (CMC+AOM), and (3) L-Tyrosine+AOM treatment group (L-Tyr+AOM). L-Tyrosine (100 mg/kg) was suspended in 0.5% CMC (carboxymethyl cellulose). The animal was orally administered, once a day for 4 days, with L-tyrosine or the prepared solvent CMC. Two hours after the oral administration on Day 4, intraperitoneal injection of AOM (100 mg/kg, […]) was carried out. To prevent dehydration, the animal was intraperitoneally injected with […] of physiological saline, 12 hours after the administration of AOM. Four hours after the injection, the test animal was sacrificed, blood was collected from the heart, and the liver tissues were harvested. Blood collected in the above was centrifuged for 15 minutes at 3,000 rpm to separate plasma, and ALT (alanine aminotransferase) as an index of liver cell injury was measured by using ChemiLab GPT Assay Kit (IVD-LAB, Korea). According to the standard measurement method of the kit, absorbance was measured at a wavelength of 340 nm, and then expressed in unit of U/L.

The next assay deals with MnSOD. As to the kind of experiment: activity of MnSOD, renal ischemia and reperfusion. It counts as in vivo, mouse. The note with it: L-tyrosine 100 mg/kg oral for 4 days, IR. On the procedure: C57BL/6 male mouse (23 to 25 g, KOATECH, South Korea) was allowed to have free access to diets and water in sterile breeding room with constant temperature and humidity. The animals were divided into 3 test groups, i.e., 1) Control group (Sham), 2) Renal ischemia having treatment with prepared solvent and induced reperfusion group (CMC+IR), and 3) Renal ischemia having treatment with L-tyrosine and induced reperfusion group (L-Tyr+IR).
L-Tyrosine (100 mg/kg) was suspended in 0.5% CMC (carboxymethyl cellulose). The animal was orally administered, once a day for 4 days, with L-tyrosine or the prepared solvent CMC. Thirty minutes after the oral administration on Day 4, renal ischemia was caused. Specifically, the animal abdomen was cut and renal pedicles at both sides were clamped using a Muller atraumatic vascular clamp to cause renal ischemia. After 25 minutes of blood ischemia, the clamp was removed followed by reperfusion. The control group (Sham) received the same operational procedures as above except the ischemia using clamp. Twenty-four hours after the reperfusion, the test animal was sacrificed, blood was collected from the heart, and the tissues were harvested.

Assay [4] relates to mouse model of epileptic seizure which has been induced to have seizure by kainic acid. As to the kind of experiment: epileptic seizure induced by kainic acid: seizure level, bodyweight, survival.
Method: Kainic acid (KA, Abcam) was dissolved in physiological saline in hot water bath to prepare 9 mg/ml kainic acid solution. After intraperitoneal injection of kainic acid (30 mg/kg), severity level and symptoms of seizure were recorded for 2 hours. Severity level of seizure was decided based on the criteria given in the following Table 2, and also the bodyweight was measured before and 24 hours after the injection of kainic acid, and then the results are compared to each other.
Assay [5] deals with chronic immobilization stress group (STR). Put plainly: TST (tail suspension test) after chronic immobilization stress. It counts as in vivo, mouse. The following applies: tyrosine-diet (181.2 mg/kg) vs normal diet, p<0.05. As for the experimental part:
The animal models were divided into two groups (i.e., normal group and stress group). The animal of stress group was individually brought by force to a restrainer for 2 hours every day (i.e., between 2 PM and 4 PM) so that it was applied with chronic immobilization stress for 15 days. Change in bodyweight and food intake amount were measured every other day. The normal group and stress group were divided again into a normal diet group and a tyrosine-supplemented diet group (181.2 mg/kg), and then fed. For TST (tail suspension test), the mouse was individually hung in a box with horizontal bar. To measure the immobile duration, animal movement was followed for 6 minutes.

`N[C@@H](Cc1ccc(O)cc1)C(=O)O` [L-tyrosine]: in assay [1], the blood ammonia result is on record as “suppressed”. Moreover, in assay [2], the “blood glucose amount, insulin resistance test” value is reported as “statistically significant decrease in blood glucose amount”. Besides, the ALT in plasma result in assay [3] is “suppressed with statistical significance”.
For the compound `N[C@@H](Cc1ccc(O)cc1)C(=O)O` [tyrosine], the “activity of MnSOD” value in the assay on MnSOD was “again recovered”. In assay [4] (ICR mouse, L-Tyr diet 181, 543 or 905 mg/kg for 1 week, kainic acid 30 mg/kg i.p., 2 hours), the severity of seizure entry was “severity of seizure is gradually reduced depending on tyrosine amount”. The mouse death entry in assay [4] (depending on intake amount of tyrosine, kainic acid 30 mg/kg i.p.) is recorded as “improvement in mouse death was also observed depending on intake amount of tyrosine”. For the same compound, the survival entry in assay [4] (diet with feeds containing tyrosine 900 mg/kg (actual intake amount)) is recorded as “all of the mice have survived”. For the same compound, the immobile duration entry in assay [5] is “statistically significant decrease in immobile duration”.
